Source: ChEMBL document CHEMBL5321255, “Sumatranins A-J: Lignans with Immunosuppressive Activity from Cleistanthus sumatranus” (J Nat Prod, 2023)

Experiments:
[1] = Cytotoxicity against BALB/c mouse splenocytes incubated for 48 hrs by MTT assay; type: toxicity, cell-based, Splenocyte
Splenocyte [2] = assay: Immunosuppressive activity in BALB/c mouse splenocytes assessed as inhibition of ConA-induced T cell proliferation by measuring [3H]-thymidine uptake by beta scintillation counter analysis; type: functional, cell-based
[3] = Selectivity index, ratio of CC50 for cytotoxicity against BALB/c mouse splenocyte to IC50 for immunosuppressive activity in BALB/c mouse splenocytes assessed as inhibition of ConA-induced T cell proliferation; type: cell-based; conditions: read-out: Ratio CC50/IC50
Splenocyte [4] = assay: Immunosuppressive activity in BALB/c mouse splenocytes assessed as inhibition of LPS-induced B cell proliferation by measuring [3H]-thymidine uptake by beta scintillation counter analysis; type: functional, cell-based
[5] = Selectivity index, ratio of CC50 for cytotoxicity against BALB/c mouse splenocyte to IC50 for immunosuppressive activity in BALB/c mouse splenocytes assessed as inhibition of LPS-induced B cell proliferation; type: cell-based; conditions: read-out: Ratio CC50/IC50

Row | SMILES | CC50 at 48 h [1] | IC50 (Splenocyte [2]) | selectivity ratio [3] | IC50 (Splenocyte [4]) | selectivity ratio [5]
1 | COc1cc2c(cc1O)O[C@H]1OC[C@H](Cc3cc4c(cc3O)OCO4)[C@H]1C2 | 82.5 µM | 14.8 µM | 5.6 | 12.1 µM | 6.8
2 | OC[C@H](Cc1ccc2c(c1)OCO2)[C@](O)(CO)Cc1cc2c(cc1O)OCO2 | 99.3 µM | 27.3 µM | 3.6 | 18.2 µM | 
3 | Oc1cc2c(cc1C[C@H]1CO[C@@H]3Oc4cc5c(cc4C[C@H]13)OCO5)OCO2 | 90.3 µM | 51.7 µM | 1.7 | 32.8 µM | 2.8
4 | OC[C@H](Cc1cc2c(cc1O)OCO2)[C@](O)(CO)Cc1cc2c(cc1O)OCO2 | 108 µM | 56.2 µM | 1.9 | 26.7 µM | 4.1
5 | COc1cc(C[C@H]2CO[C@@H]3Oc4cc5c(cc4C[C@H]23)OCO5)ccc1O | 40.1 µM | 10.1 µM | 4 | 2.7 µM | 14.9
6 | O=C(Cc1ccc2c(c1)OCO2)[C@H](CO)Cc1ccc2c(c1)OCO2 | 68 µM | 18 µM | 3.8 | 3.9 µM | 17.5
